The record followed here is US20260364184A1, “COMPOUND BASED ON OXOISOINDOLINYL-SUBSTITUTED TETRAHYDROPYRIMIDINE-DIONE AND USE THEREOF” (GLUETACS THERAPEUTICS (SHANGHAI) CO., LTD., priority 2023, published 2026).

Holding throughout (type): cell-based
The subject of test [1] is Human Multiple myeloma cell line (MM.1S). In words: Inhibition of MM.1S cell proliferation (CellTiter luminescent viability). The conditions noted are these: 96 hours; for IC50: Table IA1, IRAK4 inhibitor-based, read-out: Inhibitory activity (IC50, nM) on tumor cell proliferation, MM.1S; for inhibition at 0.01 µM / inhibition at 0.5 µM: Homo sapiens, MM1.S, Table IA5, IRAK4 inhibitor-based; for inhibition at 0.01 µM: 10 nM, read-out: Inhibition Rate at 10 nM (%); for inhibition at 0.5 µM: 500 nM, read-out: Inhibition Rate at 500 nM (%). In a few lines: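 Cells are seeded in 96-well plates, cultured at 37 °C, 5% CO2, and treated next day with 5-fold serial compound dilutions (stock series from 2000 μM; 0.5 μL into 100 μL medium). Viability is read by CellTiter-Meiluncell luminescence after the set exposure, and IC50 is taken from growth-inhibition curves.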

In test [2] the test system is Human T lymphocytic leukemia cell line (Jurkat). Put plainly: Inhibition of Jurkat cell proliferation (CellTiter luminescent viability). The conditions noted are these: 96 hours; for IC50: Table IA1, IRAK4 inhibitor-based, read-out: Inhibitory activity (IC50, nM) on tumor cell proliferation, Jurkat; for inhibition at 0.01 µM / inhibition at 0.5 µM: Homo sapiens, Table IF3, AR inhibitor-based; for inhibition at 0.01 µM: 10 nM, read-out: Inhibition Rate at 10 nM (%); for inhibition at 0.5 µM: 500 nM, read-out: Inhibition Rate at 500 nM (%).

Test [3] has as its target T1, AR (Homo sapiens, UniProt P10275).
T1 construct: expression of target proteins in cells; endogenous in cells
T1 sequence (P10275 1-920): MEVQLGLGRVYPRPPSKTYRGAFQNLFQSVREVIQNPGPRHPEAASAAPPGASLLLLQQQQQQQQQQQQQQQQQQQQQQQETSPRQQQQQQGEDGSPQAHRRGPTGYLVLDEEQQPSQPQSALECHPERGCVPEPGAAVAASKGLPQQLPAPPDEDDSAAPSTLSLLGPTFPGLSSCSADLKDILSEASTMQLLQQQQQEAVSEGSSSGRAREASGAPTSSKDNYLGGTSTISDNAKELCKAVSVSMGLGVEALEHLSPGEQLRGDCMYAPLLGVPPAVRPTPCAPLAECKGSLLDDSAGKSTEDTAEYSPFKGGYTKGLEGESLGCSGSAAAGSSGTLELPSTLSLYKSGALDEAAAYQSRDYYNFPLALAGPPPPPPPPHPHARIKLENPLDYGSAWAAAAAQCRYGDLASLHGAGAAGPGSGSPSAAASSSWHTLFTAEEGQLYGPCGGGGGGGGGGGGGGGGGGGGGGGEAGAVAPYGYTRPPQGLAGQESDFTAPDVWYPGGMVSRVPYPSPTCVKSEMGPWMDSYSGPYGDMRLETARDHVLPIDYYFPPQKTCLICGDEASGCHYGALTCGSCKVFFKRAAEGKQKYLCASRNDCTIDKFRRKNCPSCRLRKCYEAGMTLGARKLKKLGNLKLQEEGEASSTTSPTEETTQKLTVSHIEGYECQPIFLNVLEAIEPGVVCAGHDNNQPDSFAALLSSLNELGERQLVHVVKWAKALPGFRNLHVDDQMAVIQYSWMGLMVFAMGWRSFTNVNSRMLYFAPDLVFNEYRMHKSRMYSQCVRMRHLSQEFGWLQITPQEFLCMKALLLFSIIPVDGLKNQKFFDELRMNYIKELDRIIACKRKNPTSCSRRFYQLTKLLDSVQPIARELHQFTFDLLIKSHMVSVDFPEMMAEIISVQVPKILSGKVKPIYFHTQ
In words: Western blot degradation of AR. The conditions noted are these: LnCap Cell; 24 hours. In a few lines:
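Cells treated with compound, lysed, and target protein detected by Western blot (SDS-PAGE, nitrocellulose transfer). DC50 taken as the concentration giving band grayscale half that of DMSO control, estimated by concentration-response fitting; remaining protein (%) from target band normalised to internal control band; degradation (%) = 1 − remaining.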
For orientation: Immunoblotting shows a protein as a band on a membrane.

A short description of test [4]: Inhibition of RPMI-8226 cell proliferation (CellTiter luminescent viability). The conditions noted are these: Homo sapiens; Table IA4, IRAK4 inhibitor-based; RPMI-8226, 10 nM, 96 hours; read-out: Inhibition Rate at 10 nM (%).
Test [5] relates to Human B-Cell Lymphoma Cells (RPMI-8226). The test is described as above. To be noted: Table IA4, IRAK4 inhibitor-based, RPMI-8226, 500 nM, 96 hours, read-out: Inhibition Rate at 500 nM (%).

The inhibition is the change of the read-out against control, counted positive when it falls.

Turning to `O=C1CCN(N2Cc3cc(CN4CCC(n5cc(NC(=O)c6coc(-c7ccnc(NCC8CC8)c7)n6)c(C(F)F)n5)CC4)ccc3C2=O)C(=O)N1` [GT-04951, 2-(2-((cyclopropylmethyl)amino)pyridin-4-yl)-N-(3-(difluoromethyl)-1-(1-((2-(2,4-dioxotetrahydropyrimidin-1(2H)-yl)-1-oxoisoindolin-5-yl)methyl)piperidin-4-yl)-1H-pyrazol-4-yl) oxazole-4-carboxamide], the values for the IC50 in test [1] and in test [2] were 10 to 50 nM and 100 to 300 nM, respectively.

Regarding `O=C1CCN(N2Cc3cc(CN4CCC(n5cc(NC(=O)c6cnn7ccc(N8C[C@H]9C[C@@H]8CO9)nc67)c(C(F)F)n5)CC4)ccc3C2=O)C(=O)N1` [GT-05028, 5-((1R,4R)-2-oxa-5-azabicyclo[2.2.1]heptan-5-yl)-N-(3-(difluoromethyl)-1-(1-((2-(2,4-dioxotetrahydropyrimidin-1(2H)-yl)-1-oxoisoindolin-5-yl)methyl)piperidin-4-yl)-1H-pyrazol-4-yl)pyrazolo[1,5-a]pyrimidine-3-carboxamide], the results for the IC50 in test [1] and in test [2] were 10 to 50 nM and 100 to 300 nM, respectively.

`N#Cc1ccc(O[C@H]2CC[C@H](NC(=O)c3ccc(N4CCC(CN5C[C@@H]6C[C@H]5CN6c5ccc6c(c5)C(=O)N(N5CCC(=O)NC5=O)C6=O)CC4)nn3)CC2)cc1Cl` [GT-05226, N-((1r,4r)-4-(3-chloro-4-cyanophenoxy)cyclohexyl)-6-(4-(((1S,4S)-5-(2-(2,4-dioxotetrahydropyrimidin-1(2H)-yl)-1,3-dioxoisoindolin-5-yl)-2,5-diazabicyclo[2.2.1]heptan-2-yl)methyl)piperidin-1-yl)pyridazine-3-carboxamide]: the “Degradation of substrate protein AR (substrate protein remaining %)” value (shortened to “Degradation … (substrate protein remaining %)”) in test [3] is “A (0%≤substrate protein remaining %≤80%)”.

On to `O=C1CCN(N2C(=O)c3ccc(N4C5CC4CN(C[C@H]4CC[C@H](n6cc(NC(=O)c7cnn8ccc(N9C[C@H]%10C[C@@H]9CO%10)nc78)c(C(F)F)n6)CC4)C5)cc3C2=O)C(=O)N1` [GT-05242, 5-((1R,4R)-2-oxa-5-azabicyclo[2.2.1]heptan-5-yl)-N-(3-(difluoromethyl)-1-((1r,4R)-4-((6-(2-(2,4-dioxotetrahydropyrimidin-1(2H)-yl)-1,3-dioxoisoindolin-5-yl)-3,6-diazabicyclo[3.1.1]heptan-3-yl)methyl)cyclohexyl)-1H-pyrazol-4-yl)pyrazolo[1,5-a]pyrimidine-3-carboxamide], for which, in test [4], the inhibition at 0.01 µM is 20 to 25%. The inhibition at 0.5 µM in test [5] was 30 to 40%.

Consider `O=C1CCN(N2C(=O)c3cccc(N4CCC(CN5CCC(n6cc(NC(=O)c7cnn8ccc(N9C[C@H]%10C[C@@H]9CO%10)nc78)c(C(F)F)n6)CC5)CC4)c3C2=O)C(=O)N1` [GT-05285, 5-((1R,4R)-2-oxa-5-azabicyclo[2.2.1]heptan-5-yl)-N-(3-(difluoromethyl)-1-(1-((1-(2-(2,4-dioxotetrahydropyrimidin-1(2H)-yl)-1,3-dioxoisoindolin-4-yl)piperidin-4-yl)methyl)piperidin-4-yl)-1H-pyrazol-4-yl)pyrazolo[1,5-a]pyrimidine-3-carboxamide], for which the inhibition at 0.01 µM was in the range of 40 to 60% in test [1] and 30 to 40% in test [4]. Also, the results for the inhibition at 0.5 µM in test [1] and in test [5] were 60 to 80% and 25 to 30%, respectively.

`CC(C)(O)c1cc2nc(C3CCN(Cc4ccc5c(c4)CN(N4CCC(=O)NC4=O)C5=O)CC3)oc2cc1NC(=O)c1cccc(C(F)(F)F)n1` [GT-05748, N-(2-(1-((2-(2,4-dioxotetrahydropyrimidin-1(2H)-yl)-1-oxoisoindolin-5-yl)methyl)piperidin-4-yl)-5-(2-hydroxypropan-2-yl)benzo[d]oxazol-6-yl)-6-(trifluoromethyl) picolinamide]: the inhibition at 0.01 µM in test [4] fell in the range of 30 to 40%. Moreover, in test [5], the inhibition at 0.5 µM is 15 to 20%.

On to `O=C1CCN(N2Cc3cc(CN4CCC(n5cc(NC(=O)c6cnn7ccc(N8CCOCC8)nc67)c(C(F)F)n5)CC4)ccc3C2=O)C(=O)N1` [GT-05749], for which the inhibition at 0.01 µM lay within 20 to 25% in test [1] and 25 to 30% in test [4]. Moreover, the results for the inhibition at 0.5 µM in test [1] and in test [5] were 80 to 100% and 15 to 20%, respectively.

Take `N#Cc1ccc(O[C@H]2CC[C@H](NC(=O)c3ccc(N4CCC(CN5CC6CCC5CN6c5ccc6c(c5)C(=O)N(N5CCC(=O)NC5=O)C6=O)CC4)nn3)CC2)cc1Cl` (some centres unmarked) [GT-05832, N-((1r,4r)-4-(3-chloro-4-cyanophenoxy)cyclohexyl)-6-(4-((5-(2-(2,4-dioxotetrahydropyrimidin-1(2H)-yl)-1,3-dioxoisoindolin-5-yl)-2,5-diazabicyclo[2.2.2]octan-2-yl)methyl)piperidin-1-yl)pyridazine-3-carboxamide]: the “Degradation … (substrate protein remaining %)” value in test [3] is recorded as “A (0%≤substrate protein remaining %≤80%)”. In test [2], the inhibition at 0.01 µM was in the range of 0 to 5% and the inhibition at 0.5 µM fell in the range of 20 to 30%.

Turning to `CC1(C)[C@H](NC(=O)c2ccc(N3CCC(CN4CC5CCC4CN5c4ccc5c(c4)C(=O)N(N4CCC(=O)NC4=O)C5=O)CC3)nc2)C(C)(C)[C@H]1Oc1ccc(C#N)c(Cl)c1` (some centres unmarked) [GT-05834, N-((1r,3r)-3-(3-chloro-4-cyanophenoxy)-2,2,4,4-tetramethylcyclobutyl)-6-(4-((5-(2-(2,4-dioxotetrahydropyrimidin-1(2H)-yl)-1,3-dioxoisoindolin-5-yl)-2,5-diazabicyclo[2.2.2]octan-2-yl)methyl)piperidin-1-yl)nicotinamide], the “Degradation … (substrate protein remaining %)” value in test [3] is recorded as “A (0%≤substrate protein remaining %≤80%)”. In test [2], the inhibition at 0.01 µM lay in the range of 15 to 20% and the inhibition at 0.5 µM is 40 to 60%.
